ChEMBL document CHEMBL1149662, “Design and synthesis of a library of tertiary amides: evaluation as mimetics of the melanocortins' active core” (Bioorg Med Chem, 2007)

Tests used:
[1] = target: Melanocyte-stimulating hormone receptor (Mus musculus, UniProt Q01727); test: Displacement of [125I]NDP-MSH from MC1 receptor in mouse B16 cells; format: cell-based
Melanocortin receptor 4 = Melanocortin receptor 4 (Homo sapiens, UniProt P32245); test: Displacement of [125I]NDP-MSH from human recombinant MC4 receptor expressed in Sf9 cells
Melanocortin receptor 4, sequence (P32245 whole entry): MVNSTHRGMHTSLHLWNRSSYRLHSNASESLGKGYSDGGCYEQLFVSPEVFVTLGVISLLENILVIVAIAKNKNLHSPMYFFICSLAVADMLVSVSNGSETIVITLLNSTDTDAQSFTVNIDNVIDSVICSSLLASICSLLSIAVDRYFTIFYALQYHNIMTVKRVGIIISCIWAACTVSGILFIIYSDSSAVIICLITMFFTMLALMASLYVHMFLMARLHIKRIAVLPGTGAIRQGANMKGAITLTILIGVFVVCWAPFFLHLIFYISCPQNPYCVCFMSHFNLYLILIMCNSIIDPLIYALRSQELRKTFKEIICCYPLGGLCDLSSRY

Melanocortin receptor 3 = Melanocortin receptor 3 (Homo sapiens, UniProt P41968); test: Displacement of [125I]NDP-MSH from human recombinant MC3 receptor expressed in Sf9 cells
Melanocortin receptor 3, sequence (P41968 whole entry): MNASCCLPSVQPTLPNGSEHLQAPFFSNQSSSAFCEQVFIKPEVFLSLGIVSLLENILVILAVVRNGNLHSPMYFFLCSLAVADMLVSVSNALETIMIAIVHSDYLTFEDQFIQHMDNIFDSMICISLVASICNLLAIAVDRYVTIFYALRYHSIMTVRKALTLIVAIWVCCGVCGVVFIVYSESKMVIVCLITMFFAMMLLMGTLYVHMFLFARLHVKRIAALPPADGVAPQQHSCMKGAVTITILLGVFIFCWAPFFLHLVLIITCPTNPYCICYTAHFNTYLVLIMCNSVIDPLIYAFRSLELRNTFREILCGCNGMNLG

Melanocortin receptor 5 = Melanocortin receptor 5 (Homo sapiens, UniProt P33032); test: Displacement of [125I]NDP-MSH from human recombinant MC5 receptor expressed in Sf9 cells
Melanocortin receptor 5, sequence (P33032 whole entry): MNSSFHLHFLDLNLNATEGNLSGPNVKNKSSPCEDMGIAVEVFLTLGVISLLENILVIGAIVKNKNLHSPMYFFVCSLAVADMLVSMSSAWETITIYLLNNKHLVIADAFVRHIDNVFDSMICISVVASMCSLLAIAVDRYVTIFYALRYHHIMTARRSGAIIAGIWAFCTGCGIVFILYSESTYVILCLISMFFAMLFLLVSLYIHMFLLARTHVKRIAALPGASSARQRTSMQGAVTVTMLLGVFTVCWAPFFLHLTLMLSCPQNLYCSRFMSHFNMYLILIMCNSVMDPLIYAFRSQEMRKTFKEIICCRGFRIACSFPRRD

Melanocyte-stimulating hormone receptor, sequence (Q01727 whole entry): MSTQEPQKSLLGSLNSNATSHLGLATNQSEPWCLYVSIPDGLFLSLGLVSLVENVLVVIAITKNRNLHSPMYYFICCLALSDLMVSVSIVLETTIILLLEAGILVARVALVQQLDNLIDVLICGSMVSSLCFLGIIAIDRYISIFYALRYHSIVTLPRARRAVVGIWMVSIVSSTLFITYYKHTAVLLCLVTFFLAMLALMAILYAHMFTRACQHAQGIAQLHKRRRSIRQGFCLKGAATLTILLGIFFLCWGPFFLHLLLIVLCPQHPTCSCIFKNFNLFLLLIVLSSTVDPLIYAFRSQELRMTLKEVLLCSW

Structure (SMILES)	Ki [1] [µM]	Ki (Melanocortin receptor 4) [µM]	Ki (Melanocortin receptor 3) [µM]	Ki (Melanocortin receptor 5) [µM]
NC1CCC(CC2CCC(N(C/C(Cl)=C/c3ccccc3)C(=O)CCCc3c[nH]c4ccccc34)CC2)CC1 (stereo in doubt; form 4)	1.4	5.6	31	4.9
CC(C)N(CCCCN)C(=O)c1c[nH]c2ccccc12	106	222	112	279
NC1CCCC(N(C/C(Cl)=C/c2ccccc2)C(=O)CCCc2c[nH]c3ccccc23)C1 (stereo not given)	2.8	2.1	29	10
C/C(=C\c1ccccc1)CN(CCCCCCN)C(=O)c1cc2cc(O)ccc2[nH]1	3.7	11	27	20
Cc1ccc(CN(C(=O)CCCc2c(Cc3ccc(O)cc3)[nH]c3ccccc23)C2CCC(CC3CCC(N)CC3)CC2)cc1 (stereo not given)	4.7	1.9	147	2.2
NC1CCCC(NC(=O)NC2CCCC(N(C/C(Cl)=C/c3ccccc3)C(=O)CCCc3c[nH]c4ccccc34)C2)C1 (stereo not given)	3.1	18	45	16
COc1cc(Br)c(CN(C(=O)CCCc2c[nH]c3ccccc23)[C@H]2CC[C@@H](C[C@H]3CC[C@@H](N)CC3)CC2)cc1OC	2.3	7.8	8.1	6.9
CC1CC(CC2CCC(N(Cc3ccccc3)C(=O)CCCc3c[nH]c4ccccc34)C(C)C2)CCC1N (stereo in doubt; form 1)	0.69	1.2	4.3	1.7
NCCCN(C/C=C/c1ccccc1)C(=O)Cc1ccc2ccccc2c1	2.5	6.4	33	10
NCCCN(C(=O)c1cc2cc(OCc3ccccc3)ccc2[nH]1)C1CCc2ccccc2C1 (stereo not given)	26	21	542	681
CC1CC(CC2CCC(N(C/C(Cl)=C/c3ccccc3)C(=O)CCCc3c[nH]c4ccccc34)C(C)C2)CCC1N (stereo in doubt; form 1)	5.6	7.7	64	9.1
NC1CCC(CC2CCC(N(C(=O)CCCc3c[nH]c4ccccc34)C3CCc4ccccc4C3)CC2)CC1 (stereo not given)	4.5	12	278	44
NC1CCC(CC2CCC(N(Cc3ccccc3Cl)C(=O)CCCc3c(Cc4ccc(O)cc4)[nH]c4ccccc34)CC2)CC1 (stereo not given)	6.6	14	26	97
N=C(N)NCCCCN(Cc1ccc2ccccc2c1)C(=O)CCCc1c[nH]c2ccccc12	3.2	96	134	11
NCc1ccc(CN(C/C=C/c2ccccc2)C(=O)CCCc2c[nH]c3ccccc23)cc1	2.6	7.3	44	9.7
NC1CCC(CC2CCC(N(C/C(Cl)=C/c3ccccc3)C(=O)CCCc3c[nH]c4ccccc34)CC2)CC1 (stereo in doubt; form 1)	0.51	4.1	7.1	47
N=C(N)NC1CCC(CC2CCC(N(C/C=C/c3ccccc3)C(=O)CCCc3c[nH]c4ccccc34)CC2)CC1 (stereo not given)	3.5	38	23	37
NC1CCC(CC2CCC(N(C/C(Cl)=C/c3ccccc3)C(=O)CCCc3c[nH]c4ccccc34)CC2)CC1 (stereo in doubt; form 2)	0.96	2	17	8.7
NCCCCCN(C(=O)COc1ccc2ccccc2c1)C1CCC2(CC=CCC2)CC1 (stereo not given)	7.4	5.9	3.7	8
COc1ccc2c(c1)c(CC(=O)N(CCCCN)C/C(C)=C/c1ccccc1)c(C)n2C(=O)c1ccc(Cl)cc1	1.8	7.1	30	56
COc1cc(Br)c(CN(C(=O)CCCc2c(Cc3ccc(O)cc3)[nH]c3ccccc23)[C@H]2CC[C@@H](C[C@H]3CC[C@H](N)CC3)CC2)cc1OC	2.9	7.4	5.4	9.1
NCCCN(C/C=C/c1ccccc1)C(=O)c1c[nH]c2ccccc12	17	23	172	12
N=C(N)NC1CCC(CC2CCC(N(C/C(Cl)=C/c3ccccc3)C(=O)CCCc3c[nH]c4ccccc34)CC2)CC1 (stereo in doubt; form 2)	2.7	3.4	13	27
NC1CCCC(NC(=O)NC2CCCC(N(Cc3ccccc3)C(=O)CCCc3c(Cc4ccc(O)cc4)[nH]c4ccccc34)C2)C1 (stereo not given)	2.9	6.5	25	23
NC1CCC(CC2CCC(N(C/C(Cl)=C/c3ccccc3)C(=O)COc3ccc4ccccc4c3)CC2)CC1 (stereo in doubt; form 8)	1.6	3.7	62	42
